Source: the NIST ThermoML archive (doi:10.1016/j.jct.2007.05.015)

Legend:
[1] = xn = mol fraction of the nth substance listed; conditions: 298.15 K, 101 kPa, Liquid
[2] = 298.15 K; 101 kPa; Liquid

CN1CCCC1=O [N-methylpyrrolidone] + O
[1]
Conditions	mass density [kg/m3]	speed of sound [m/s]
x1 = 0.02533	1004.51	1573.6
x1 = 0.06006	1014.28	1646.8
x1 = 0.08026	1020.63	1684.4
x1 = 0.1008	1025.71	1724.7
x1 = 0.1191	1030.16	1731.2
x1 = 0.1399	1034.69	1745.2
x1 = 0.1596	1038.09	1747.7
x1 = 0.1779	1040.14	1749.2
x1 = 0.1964	1041.52	1751.7
x1 = 0.2203	1042.98	1750.7
x1 = 0.2399	1044.35	1750.1
x1 = 0.2602	1045.7	1745.3
x1 = 0.278	1046	1741.8
x1 = 0.2987	1046.27	1735.4
x1 = 0.3296	1046.23	1725.6
x1 = 0.3794	1045.76	1707.8
x1 = 0.4497	1044.33	1687.1
x1 = 0.4986	1043.54	1670
x1 = 0.5494	1041.35	1651.2
x1 = 0.5978	1039.92	1633.6
x1 = 0.649	1037.65	1621
x1 = 0.6998	1035.76	1610.2
x1 = 0.7893	1032.74	1587.7
x1 = 0.8199	1031.82	1574.4
x1 = 0.8333	1031.01	1568.3
x1 = 0.8826	1030.54	1563.8
x1 = 0.8976	1029.93	1558.4
x1 = 0.9553	1028.92	1552.2
x1 = 1	1028.23	1531.5

CN(C)C=O [dimethylformamide]
[2]
Conditions	mass density [kg/m3]	speed of sound [m/s]
–	943.94	1457.5

CN(C)C=O [dimethylformamide] + O
[1]
Conditions	mass density [kg/m3]	speed of sound [m/s]
x1 = 0.01233	996.44	1526.3
x1 = 0.0266	996.21	1555.7
x1 = 0.0276	996.23	1554.2
x1 = 0.04154	996.18	1582.3
x1 = 0.05803	996.38	1607.4
x1 = 0.07593	996.62	1628.8
x1 = 0.09542	996.84	1647.5
x1 = 0.1173	997.02	1659
x1 = 0.1412	996.93	1675.5
x1 = 0.1677	996.02	1684.6
x1 = 0.1975	995.1	1688.2
x1 = 0.23	993.87	1687.8
x1 = 0.2866	990.18	1676.6
x1 = 0.3139	989.17	1669.3
x1 = 0.3771	984.28	1647.7
x1 = 0.4247	981.19	1629.1
x1 = 0.4494	979.47	1620.3
x1 = 0.4755	977.79	1610.1
x1 = 0.4955	976.4	1599.5
x1 = 0.5203	974.98	1592
x1 = 0.5336	974.17	1585.7
x1 = 0.555	972.69	1572.1
x1 = 0.5806	970.92	1565.8
x1 = 0.6169	968.9	1559
x1 = 0.637	967.32	1550.5
x1 = 0.6551	965.83	1545.2
x1 = 0.6931	963.35	1538.2
x1 = 0.7172	961.78	1527.7
x1 = 0.7373	960.6	1519.7
x1 = 0.753	959.56	1514.8
x1 = 0.7666	958.73	1512.3
x1 = 0.8037	956.19	1504.3
x1 = 0.8126	955.54	1501.2
x1 = 0.8469	953.57	1493
x1 = 0.8694	952.12	1491.4
x1 = 0.8911	950.68	1488.4
x1 = 0.925	948.01	1476.6
x1 = 0.9661	946.28	1469.1
x1 = 1	943.94	1457.5

NC=O [formamide]
[2]
Conditions	mass density [kg/m3]	speed of sound [m/s]
–	1128.78	1597.3

NC=O [formamide] + O
[1]
Conditions	mass density [kg/m3]	speed of sound [m/s]
x1 = 0.01258	1001.58	1507
x1 = 0.01991	1004.13	1512.2
x1 = 0.0361	1009.48	1522.8
x1 = 0.05028	1013.93	1530.9
x1 = 0.06473	1018.25	1538.3
x1 = 0.07977	1022.53	1545.1
x1 = 0.09437	1026.49	1551
x1 = 0.1125	1031.16	1557.5
x1 = 0.1347	1036.54	1564.5
x1 = 0.1596	1042.19	1571
x1 = 0.1946	1049.41	1578.3
x1 = 0.2295	1056.08	1584.1
x1 = 0.2548	1060.55	1587.5
x1 = 0.2731	1063.6	1589.5
x1 = 0.2919	1066.61	1591.4
x1 = 0.3343	1072.9	1594.7
x1 = 0.3711	1077.91	1596.7
x1 = 0.4046	1082.13	1598.1
x1 = 0.4552	1088.06	1599.4
x1 = 0.4884	1091.6	1600
x1 = 0.5025	1093.05	1600.2
x1 = 0.5225	1094.97	1600.3
x1 = 0.5564	1098.27	1600.5
x1 = 0.595	1101.68	1600.5
x1 = 0.6298	1104.65	1600.5
x1 = 0.6714	1107.95	1600.2
x1 = 0.702	1110.28	1600
x1 = 0.723	1111.82	1599.8
x1 = 0.7544	1113.99	1599.6
x1 = 0.78	1115.76	1599.4
x1 = 0.8094	1117.67	1599.1
x1 = 0.8358	1119.42	1598.8
x1 = 0.8752	1121.79	1598.6
x1 = 0.917	1124.23	1598.2
x1 = 0.9465	1125.98	1598
x1 = 0.9702	1127.29	1597.9
x1 = 1	1128.78	1597.3
